CC#C[C@]1(O)CC[C@H]2[C@@H]3CCC4=CC(=O)CCC4=C3[C@@H](c3ccc(N(C)C)cc3)C[C@@]21C
solubility (mole fraction)
Conditions	273.15 K	278.15 K	283.15 K	288.15 K	293.15 K	298.15 K	303.15 K	308.15 K	313.15 K	318.15 K
in THF	5.16e-05	6e-05	6.95e-05	8.05e-05	9.3e-05	0.000107	0.000123	0.000142	0.000163	0.000188
in acetone	0.000149	0.000184	0.000228	0.000281	0.000345	0.000422	0.000516	0.000628	0.000762	0.000922
in ethanol	0.000122	0.000146	0.000174	0.000206	0.000244	0.000289	0.000341	0.000401	0.000472	0.000552
in ethyl acetate	0.000103	0.000125	0.000152	0.000184	0.000223	0.00027	0.000325	0.000392	0.000471	0.000565
in isopropanol	7.13e-05	0.000109	0.000164	0.000244	0.000358	0.000518	0.00074	0.00105	0.00146	0.00202
in methanol	0.000445	0.00058	0.000756	0.000982	0.00128	0.00164	0.0021	0.00266	0.00333	0.00414
in n-butanol	0.000172	0.000213	0.000264	0.000332	0.000412	0.000502	0.000612	0.000733	0.000875	0.00103
in n-propanol	0.000138	0.000163	0.000192	0.000226	0.000266	0.00031	0.000362	0.000428	0.000499	0.000582

Source: BigSolDB 2.1
